Results as given in patent US20250197373A1, “SMALL MOLECULE COMPOUND OR SALT THEREOF OR SOLVATE OF THEM, GUANINE NUCLEOTIDE-BINDING PROTEIN G(Q) SUBUNIT ALPHA (GNAQ) INHIBITOR CONTAINING THE SAME AND METHOD FOR TREATING AND/OR PREVENTING CANCER” (INDUSTRIAL TECHNOLOGY RESEARCH INSTITUTE, priority 2023, published 2025).

Key:
[1] = Half cytotoxic concentration on normal mammary gland epithelial cells MCF-10A-5E (PrestoBlue); type: cell-based; conditions: human, MCF-10A-5E normal mammary gland epithelial cells, 5 days culture, 10% horse serum, read-out: Non-toxicity (evaluated by CC50)
Protocol: Human normal mammary epithelial cells, MCF-10A-5E cells, were cultured in DMEM/F12K (1:1) medium, wherein Insulin-Transferrin-Selenium (ITS-G) (41400045; Thermo Fisher Scientific) diluted 1,000-fold for use, EGF stock (1 mg/mL) (10605-HNAE; Sino Biological) diluted 2,000-fold for use and Hydrocortisone stock (1 mg/mL) (S1696; Selleck Chemicals) diluted 2,000-fold for use were additionally added to the medium.
5×10^3 of the cells mentioned above were seeded in a 96-well plate and cultured overnight (at least 16 hours) in a carbon dioxide incubator.
(§1) After overnight incubation, the supernatant was removed. Next, after 200 μL of cell culture medium (containing 10% horse serum) containing different concentrations of test compound was added to each well of the 96-well plate, the 96-well plate was placed in a 5% carbon dioxide incubator at 37° C. for 5 days further culture. After that, an additional 30 μL of diluted PrestoBlue™ Cell Viability Reagent (Catalog Number: A13261; Thermo Fisher Scientific) (4 μL stock solution and 26 μL culture medium) was added to each well of the 96-well plate and the reaction was continued for further about 1 hour.
Finally, the fluorescence value at the wavelength of 535/615 nm of each well was read with a plate enzyme immunoassay analyzer, and the fatality rate of the compound on normal mammary gland epithelial cells were calculated using the following formula.
Moreover, the half cytotoxic concentration (50% cytotoxic concentration, CC50) of the compound on normal mammary gland epithelial cells was calculated with the fatality rate of compound on normal mammary gland epithelial cells at each concentration through the online half maximal inhibitory concentration (IC50) calculation software, ICso Calculator, provided by AAT Bioquest company on its website (https://www.aatbio.com/tools/ic50-calculator).
Finally, toxicity of the compound on normal mammary gland epithelial cells was evaluated by the calculated half cytotoxic concentration (CC50) of the compound on normal mammary gland epithelial cells.
In addition, the toxicity of the compound on normal mammary gland epithelial cells was evaluated by the half cytotoxic concentration (CC50) of the compound (one of Compound 1 to Compound 15 prepared above) on normal mammary gland epithelial cells through the human normal mammary gland epithelial cell line MCF-T0A-5E.

MCF-7 GNAQ (T96S) cells = experiment: Inhibition of growth of mammary gland cancer cells MCF-7 GNAQ (T96S) (PrestoBlue); type: cell-based; conditions: Homo sapiens, MCF7, 168 h, 7 days culture, 2% fetal bovine serum, read-out: Inhibitory activity (evaluated by IC50)
Protocol: Human mammary gland cancer cells, MCF-7 cells and MCF-7 GNAQ (T96S) cells (MCF-7 cells expressing GNAQ (T96S) after GNAQ gene deletion) were cultured in MEM medium.
1×10^3 of the cells mentioned above were seeded in a 96-well plate and cultured overnight (at least 16 hours) in a carbon dioxide incubator.
as §1, with “(containing 2% fetal bovine” for “(containing 10% horse”, “for 7” for “for 5”
Finally, the fluorescence value at the wavelength of 535/615 nm of each well was read with a plate enzyme immunoassay analyzer, and the inhibitory rate of the compound on mammary gland cancer cells were calculated using the following formula.
Moreover, the half maximal inhibitory concentration (IC50) of the compound on the growth of mammary gland cancer cells was calculated with the inhibitory rate of the compound on mammary gland cancer cells at each concentration through the online half maximal inhibitory concentration (IC50) calculation software, IC50 Calculator, provided by AAT Bioquest company on its website (https://www.aatbio.com/tools/ic50-calculator).
Finally, the inhibition of the compound on the growth of mammary gland cancer cells was evaluated by the calculated half maximal inhibitory concentration (IC50) of the compound on the growth of mammary gland cancer cells.
The inhibition of the compound on the growth of breast cancer cells was evaluated by the half maximal inhibitory concentration (IC50) of the compound (one of Compound 1 to Compound 15 prepared above) on the growth of mammary gland cancer cells through the human mammary gland cancer cell line MCF-7 and the human mammary gland cancer cell line MCF-7 GNAQ (T96S) expressing the mutated gene.

Compound: O=C(Nc1ccc(-c2ccnc(-c3ccncc3)n2)cc1)Nc1ccc(Cl)c(C(F)(F)F)c1 [Compound 6]
- CC50 at 5 days [1]: 10000 to 20000 nM
- IC50 (MCF-7 GNAQ (T96S) cells): 310 to 2500 nM

Compound: N#Cc1cccc(-c2cccc(-c3ccc(NC(=S)Nc4cc(Cl)nc(Cl)c4)cc3)n2)c1 [Compound 11]
- CC50 at 5 days [1]: > 20000 nM
- IC50 (MCF-7 GNAQ (T96S) cells): 310 to 2500 nM

Compound: O=C(Nc1cccc(-c2ccnc(-c3cccc(C(F)(F)F)c3)n2)c1)Nc1cc(Cl)nc(Cl)c1 [Compound 2]
- CC50 at 5 days [1]: 10000 to 20000 nM
- IC50 (MCF-7 GNAQ (T96S) cells): 310 to 2500 nM

Compound: N#Cc1cccc(-c2nccc(-c3cccc(NC(=O)Nc4cc(Cl)nc(Cl)c4)c3)n2)c1 [Compound 3]
- CC50 at 5 days [1]: 10000 to 20000 nM
- IC50 (MCF-7 GNAQ (T96S) cells): 310 to 2500 nM

Compound: O=C(Nc1ccc(-c2nc(-c3ccccc3)ncc2Cl)cc1)Nc1cc(Cl)nc(Cl)c1 [Compound 15]
- CC50 at 5 days [1]: 10000 to 20000 nM
- IC50 (MCF-7 GNAQ (T96S) cells): < 310 nM

Compound: O=C(Nc1ccc(-c2cccc(-c3ccncc3)n2)cc1)Nc1ccc(Cl)c(C(F)(F)F)c1 [Compound 12]
- CC50 at 5 days [1]: 10000 to 20000 nM
- IC50 (MCF-7 GNAQ (T96S) cells): 310 to 2500 nM

Compound: O=C(Nc1cccc(-c2cc(-c3cccc(C(F)(F)F)c3)ncn2)c1)Nc1cc(Cl)nc(Cl)c1 [Compound 14]
- CC50 at 5 days [1]: 10000 to 20000 nM
- IC50 (MCF-7 GNAQ (T96S) cells): < 310 nM

Compound: O=C(Nc1cccc(-c2ccnc(-c3cccc(C(F)(F)F)c3)n2)c1)c1cc(Cl)nc(Cl)c1 [Compound 5]
- CC50 at 5 days [1]: > 20000 nM
- IC50 (MCF-7 GNAQ (T96S) cells): 310 to 2500 nM

Compound: O=C(Nc1cccc(-c2ccnc(-c3ccc(F)c(F)c3)n2)c1)Nc1cc(Cl)nc(Cl)c1 [Compound 4]
- CC50 at 5 days [1]: 5000 to 10000 nM
- IC50 (MCF-7 GNAQ (T96S) cells): 310 to 2500 nM

Compound: O=C(Nc1cccc(-c2ccnc(-c3ccnc(Cl)c3)n2)c1)Nc1cc(Cl)nc(Cl)c1 [Compound 1]
- CC50 at 5 days [1]: > 20000 nM
- IC50 (MCF-7 GNAQ (T96S) cells): 310 to 2500 nM

Compound: O=C(Nc1cccc(-c2cccc(-c3ccncc3)n2)c1)Nc1cc(Cl)nc(Cl)c1 [Compound 13]
- CC50 at 5 days [1]: > 20000 nM
- IC50 (MCF-7 GNAQ (T96S) cells): 310 to 2500 nM

Compound: O=C(Nc1ccc(-c2ccnc(-c3cccc(C(F)(F)F)c3)n2)cc1)Nc1cc(Cl)nc(Cl)c1 [Compound 7]
- CC50 at 5 days [1]: 10000 to 20000 nM
- IC50 (MCF-7 GNAQ (T96S) cells): 310 to 2500 nM

Compound: O=C(Nc1ccc(-c2ccnc(-c3cccc(C(F)(F)F)c3)n2)cc1)Nc1ccc(Cl)c(C(F)(F)F)c1 [Compound 8]
- CC50 at 5 days [1]: 10000 to 20000 nM
- IC50 (MCF-7 GNAQ (T96S) cells): 310 to 2500 nM

Compound: FC(F)(F)c1cccc(-c2cccc(-c3ccc(NC(=S)Nc4cc(Cl)nc(Cl)c4)cc3)n2)c1 [Compound 10]
- CC50 at 5 days [1]: > 20000 nM
- IC50 (MCF-7 GNAQ (T96S) cells): 310 to 2500 nM

Compound: O=C(Nc1ccc(-c2cccc(-c3cccc(C(F)(F)F)c3)n2)cc1)Nc1cc(Cl)nc(Cl)c1 [Compound 9]
- CC50 at 5 days [1]: 10000 to 20000 nM
- IC50 (MCF-7 GNAQ (T96S) cells): 310 to 2500 nM
